Assay [1] is filed under the species Homo sapiens. Description: Inhibitory activity against ADP-induced platelet aggregation using human platelet rich plasma at a concentration of 4 uM by functional assay.
Assay [2] addresses Prostacyclin receptor (Homo sapiens, UniProt P43119). The experiment in a line: Displacement of [3H]iloprost from Prostaglandin I2 receptor of human platelets. (In general: Loss of bound radioactivity is the signal in a displacement assay; it reports binding, not function.)
For assay [3], the species on record is Canis familiaris. The experiment in a line: Evaluated for ADP-induced antiaggregation of dog platelets. It is filed as functional. As to conditions: Canis lupus familiaris.
The species entered for assay [4] is Cavia porcellus. The experiment in a line: Effective dose for ex vivo inhibition of platelet aggregation for four hours in guinea pigs. It is filed as functional, organism-based.
The species named for assay [5] is Cavia porcellus. The experiment in a line: Evaluated for ADP-induced antiaggregation of guinea pig platelets. The format is functional.

pIC50: −log10 of the molar value.

Sequence of Prostacyclin receptor (P43119 whole entry): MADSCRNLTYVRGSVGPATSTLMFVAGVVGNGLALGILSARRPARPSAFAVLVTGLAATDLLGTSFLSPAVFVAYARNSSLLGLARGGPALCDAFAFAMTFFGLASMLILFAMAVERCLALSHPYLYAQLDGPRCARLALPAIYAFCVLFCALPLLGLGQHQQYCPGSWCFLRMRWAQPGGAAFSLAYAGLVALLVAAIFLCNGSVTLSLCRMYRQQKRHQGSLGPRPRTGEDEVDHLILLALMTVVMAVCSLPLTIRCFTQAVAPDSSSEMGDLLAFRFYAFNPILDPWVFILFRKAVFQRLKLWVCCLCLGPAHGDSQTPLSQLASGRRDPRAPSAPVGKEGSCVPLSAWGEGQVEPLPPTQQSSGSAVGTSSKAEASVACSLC

Usually pIC50 stands for the IC50 on a negative log10 scale, so that one unit is a factor of ten. On to `CCC/C(C[C@H]1CCc2c(cccc2OCC(=O)O)C1)=N\OC(c1ccccc1)c1ccccc1`, for which the pIC50 in assay [1] is 6.89. Regarding `C/C(CC1CCc2c(cccc2OCC(=O)O)C1)=N\OC(c1ccccc1)c1ccccc1` (configuration not stated), the pIC50 in assay [2] is 6.42. As for `CCC/C(CC1CCc2c(cccc2OCC(=O)O)C1)=N\OC(c1ccccc1)c1ccccc1` (configuration not stated) [AP-227], the results for the pIC50 in assay [2], in assay [3] and in assay [5] were 6.82, 5.14 and 5.72, respectively. Moreover, in assay [4], the EC50 was 0.82 mg/kg. On to `CC/C(CC1CCc2c(cccc2OCC(=O)O)C1)=N\OC(c1ccccc1)c1ccccc1` (configuration not stated), for which the pIC50 in assay [2] was 6.82; in assay [1], 7.15. Regarding `C/C(CC1CCc2c(cccc2OCC(=O)O)C1)=N\OCc1ccccc1` (configuration not stated), the figures for the pIC50 in assay [2] and in assay [1] were 5.28 and 4.92, respectively. The like results for `CCCCC[C@H](O)/C=C/[C@H]1[C@H](O)CC(=O)[C@@H]1CCCCCCC(=O)O` [ALPROSTADIL] were, in that order, 5.85 and 7.15. Compound `C/C(C[C@H]1CCc2c(cccc2OCC(=O)O)C1)=N\OC(c1ccccc1)c1ccccc1` had a pIC50 in assay [2] of 6.66. On to `CCC/C(CCC1CCCc2c(OCC(=O)O)cccc21)=N\OC(c1ccccc1)c1ccccc1` (configuration not stated), for which the figures for the pIC50 in assay [2] and in assay [1] were 5.68 and 5.62, respectively. Take `C/C(C[C@@H]1CCc2c(cccc2OCC(=O)O)C1)=N\OC(c1ccccc1)c1ccccc1`: the negative logarithm of the IC50 (pIC50) was 5.66 in assay [2] and 5.72 in assay [1].

The record behind these values is ChEMBL document CHEMBL1152018, “Molecular design of novel PGI2 agonists without PG skeleton. II” (Bioorg Med Chem Lett, 1995).
